Data on 68 compounds can be found in patent US8633183B2 (priority 2010, dated 2014).

Each structure is given as a SMILES string. pIC50: −log10 of the molar value.

The target in the test is PI3Kalpha (Homo sapiens (Human), UniProt P42336). The note with it: read-out: IC50 PI3K.
Chain of PI3Kalpha (P42336 whole entry, looked up): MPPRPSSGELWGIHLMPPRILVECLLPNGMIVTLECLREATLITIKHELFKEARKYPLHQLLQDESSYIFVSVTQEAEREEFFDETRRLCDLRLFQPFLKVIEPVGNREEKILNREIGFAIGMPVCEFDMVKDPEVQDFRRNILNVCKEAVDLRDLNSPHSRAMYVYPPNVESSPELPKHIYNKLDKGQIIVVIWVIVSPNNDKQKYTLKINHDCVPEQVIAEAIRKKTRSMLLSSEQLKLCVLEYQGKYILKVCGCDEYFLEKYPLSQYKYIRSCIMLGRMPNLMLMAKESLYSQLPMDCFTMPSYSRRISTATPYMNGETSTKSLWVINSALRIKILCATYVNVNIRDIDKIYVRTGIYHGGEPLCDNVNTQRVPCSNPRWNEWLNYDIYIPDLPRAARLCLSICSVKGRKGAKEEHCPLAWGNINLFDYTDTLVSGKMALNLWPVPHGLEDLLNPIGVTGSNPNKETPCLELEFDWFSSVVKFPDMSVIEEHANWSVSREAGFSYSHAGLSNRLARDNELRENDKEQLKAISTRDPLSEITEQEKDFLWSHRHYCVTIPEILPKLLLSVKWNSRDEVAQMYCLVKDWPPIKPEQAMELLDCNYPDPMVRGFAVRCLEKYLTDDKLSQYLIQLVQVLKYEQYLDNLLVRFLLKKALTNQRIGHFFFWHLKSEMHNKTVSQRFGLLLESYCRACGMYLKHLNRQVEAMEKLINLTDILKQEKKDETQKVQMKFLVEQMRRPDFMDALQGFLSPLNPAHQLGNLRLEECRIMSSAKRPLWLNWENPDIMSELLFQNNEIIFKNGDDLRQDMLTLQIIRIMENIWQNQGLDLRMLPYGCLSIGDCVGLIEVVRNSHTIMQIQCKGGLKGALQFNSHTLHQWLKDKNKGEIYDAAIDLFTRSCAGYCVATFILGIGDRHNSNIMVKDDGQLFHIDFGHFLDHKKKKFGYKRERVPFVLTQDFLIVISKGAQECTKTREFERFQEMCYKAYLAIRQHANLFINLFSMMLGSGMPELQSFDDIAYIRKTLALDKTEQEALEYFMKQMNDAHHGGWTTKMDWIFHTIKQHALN
As usually defined, the pIC50 is −log10 of the IC50, conventionally taken in molar units. Take `CCc1ncnc(-c2ccc(C(=O)N3CCn4cnnc4C3)c(Cl)c2)c1C#Cc1ccc(N)nc1` [Example E-255]: the pIC50 was 8.32. Take `CCc1ncnc(-c2cc(F)c(C(=O)N3CCC4(CC3)CN(C)C4)c(Cl)c2)c1C#Cc1ccc(N)nc1` [Example E-337]: the pIC50 was 6.06. Regarding `CCc1ncnc(-c2ccc(C(=O)N3CCN(C(C)=O)CC3)c(C)c2)c1C#Cc1ccc(N)nc1` [Example E-108], the pIC50 is 7.15. As for `CCc1ncnc(-c2ccc(C(=O)N3CCN(Cc4cc(C)no4)CC3)c(Cl)c2)c1C#Cc1ccc(N)nc1` [Example E-312], the pIC50 is 6.96.

In the case of `CCc1ncnc(-c2ccc(C(=O)N3CCN(CC(=O)N(C)C)CC3)c(F)c2)c1C#Cc1ccc(N)nc1` [Example D-85], the pIC50 is 6.94.

For the compound `CCc1ncnc(-c2cc(F)c(C(=O)N3CCC(CO)CC3)c(Cl)c2)c1C#Cc1ccc(N)nc1` [Example E-242], the pIC50 was 6.92. The result for `CCc1ncnc(-c2ccc(C(=O)N3CCC4(CC3)CN(C)C4)c(Cl)c2)c1C#Cc1ccc(N)nc1` [Example E-338] reads 6.20; that for `CCc1ncnc(-c2ccc(C(=O)NCCN3CCOCC3)c(OC)c2)c1C#Cc1ccc(N)nc1` [Example E-64], 6.93. As for `CCc1ncnc(-c2ccc(C(=O)N3CCCO3)cc2)c1C#Cc1ccc(N)nc1` [Example D-222], the negative-log IC50 (pIC50) was 7.38. For the compound `CCc1ncnc(-c2cc(F)c(C(=O)N3CCN(C4COC4)CC3)c(F)c2)c1C#Cc1ccc(N)nc1` [Example E-275], the pIC50 was 6.85. For the compound `CCc1ncnc(-c2ccc(C(=O)N3CCCN(C)CC3)c(Cl)c2)c1C#Cc1ccc(N)nc1` [Example D-154], the pIC50 was 6.39.

Consider `CCc1ncnc(-c2ccc(C(=O)N(C)C3CCOCC3)c(F)c2)c1C#Cc1ccc(N)nc1` [Example E-169], for which the pIC50 was 7.16.

Turning to `CCc1ncnc(-c2ccc(C(=O)N3CC[C@H](O)C3)c(Cl)c2)c1C#Cc1ccc(N)nc1` [Example D-145], the pIC50 is 7.24.

`CNC(=O)c1cc(-c2ncnc(C)c2C#Cc2ccc(N)nc2)ccc1F` [Example C-43]: the pIC50 was 6.74. Regarding `CCc1ncnc(-c2ccc(C(=O)N3CCNCC3)c(Cl)c2)c1C#Cc1ccc(N)nc1` [Example D-152], the pIC50 was 6.79.

In the case of `CCc1ncnc(-c2ccc(C(=O)N3CCNC(=O)C3)c(OC)c2)c1C#Cc1ccc(N)nc1` [Example D-59], the pIC50 was 7.72. Take `CCc1ncnc(-c2ccc(C(=O)N3CCC4(CCN(C)C4)C3)c(C)c2)c1C#Cc1ccc(N)nc1` (centres unmarked) [Example E-112]: the pIC50 was 6.60. For the compound `CCc1ncnc(-c2ccc(C(=O)N3CCC(N4CCCCC4)CC3)c(F)c2)c1C#Cc1ccc(N)nc1` [Example D-70], the pIC50 is 6.31. For the compound `CCc1ncnc(-c2ccc(C(=O)N3CCN(C4CCS(=O)(=O)C4)CC3)c(Cl)c2)c1C#Cc1ccc(N)nc1` [Example D-32], the pIC50 was 6.92. On to `CCc1ncnc(-c2ccc(C(=O)N3CCCO3)c(OC)c2)c1C#Cc1ccc(N)nc1` [Example E-50], for which the negative logarithm of the IC50 (pIC50) is 6.80. As to `CCc1ncnc(-c2ccc(C(=O)N3CCOC4(CCNCC4)C3)c(F)c2)c1C#Cc1ccc(N)nc1` [Example E-326], the pIC50 was 6.44. Regarding `CCc1ncnc(-c2ccc(C(=O)N3CCCN(C)CC3)c(F)c2)c1C#Cc1ccc(N)nc1` [Example D-118], the pIC50 was 6.39.

Regarding `CCc1ncnc(-c2ccc(C(=O)N3CCNC(=O)C3)c(Cl)c2)c1C#Cc1ccc(N)nc1` [Example D-44], the pIC50 is 7.57.

Turning to `CCc1ncnc(-c2ccc(C(=O)N3CCN(C)CC3)c(F)c2)c1C#Cc1ccc(N)nc1C` [Example D-21], the pIC50 was 6.57. As to `CCc1ncnc(-c2ccc(C(=O)N3CCC[C@@H]3CO)c(F)c2)c1C#Cc1ccc(N)nc1` [Example D-131], the pIC50 was 6.92. As to `CCc1ncnc(-c2ccc(C(=O)N(C)CC3CCN(C)CC3)c(F)c2)c1C#Cc1ccc(N)nc1` [Example D-76], the pIC50 was 6.47. On to `CCc1ncnc(-c2ccc(C(F)(F)F)nc2)c1C#Cc1ccc(N)nc1` [Example C-28], for which the pIC50 was 7.24. Consider `CCc1ncnc(-c2ccc(C(=O)N3CCN4CCC[C@H]4C3)c(OC(F)(F)F)c2)c1C#Cc1ccc(N)nc1` [Example E-223], for which the pIC50 is 6.80. The result for `CCc1ncnc(-c2cc(Cl)c(C(=O)N3CC4(CN(C)C4)C3)c(Cl)c2)c1C#Cc1ccc(N)nc1` [Example E-333] reads 6.22; that for `CCc1ncnc(-c2ccc(C(=O)N3CCC4(CC3)CNC4)c(Cl)c2)c1C#Cc1ccc(N)nc1` [Example E-251], 7.04; that for `Cc1ncnc(-c2ccc(C3CC3)nc2)c1C#Cc1ccc(N)nc1` [Example C-26], 7.37.

Regarding `CCc1ncnc(-c2ccc(C(=O)NC3CCCN(C4CCN(C)CC4)C3)c(F)c2)c1C#Cc1ccc(N)nc1` [Example D-205], the pIC50 was 6.47.

Consider `CCc1ncnc(-c2ccc(C(=O)N3CCN(CCNS(C)(=O)=O)CC3)c(F)c2)c1C#Cc1ccc(N)nc1` [Example E-246], for which the pIC50 was 7.09. Consider `CCc1ncnc(-c2cc(F)c(C(=O)NCC3CCNCC3)c(F)c2)c1C#Cc1ccc(N)nc1` [Example E-175], for which the pIC50 is 6.79. The same measure for `CCc1ncnc(-c2ccc(C(=O)N3CCN(CCCS(C)(=O)=O)CC3)c(Cl)c2)c1C#Cc1ccc(N)nc1` [Example E-257]: 7.23; for `CCc1ncnc(-c2ccc(N(C)C)nc2)c1C#Cc1ccc(N)nc1` [Example C-34]: 7.43. As for `CCc1ncnc(-c2cccc(C(=O)NC)c2)c1C#Cc1ccc(N)nc1` [Example C-50], the pIC50 is 7.14. The same measure for `CCc1ncnc(-c2ccc(C(=O)N3CCN(CCOCCO)CC3)c(F)c2)c1C#Cc1ccc(N)nc1` [Example E-345]: 6.96; for `CCc1ncnc(-c2ccc(C(=O)N3CCN(CC(F)F)CC3)c(F)c2)c1C#Cc1ccc(N)nc1` [Example D-61]: 7.07. Turning to `CCc1ncnc(-c2ccc(C(=O)N3CCOCC3)c(C)c2)c1C#Cc1ccc(N)nc1` [Example E-92], the pIC50 is 7.23. Take `CCc1ncnc(-c2ccc(C(=O)N(C)OC)c(OC)c2)c1C#Cc1ccc(N)nc1` [Example E-60]: the pIC50 is 7.16. For `CCc1ncnc(-c2ccc(C(=O)N3CCC(N4CCOCC4)CC3)c(OC(F)(F)F)c2)c1C#Cc1ccc(N)nc1` [Example E-228], the negative logarithm of the IC50 (pIC50) is 6.45. With `CCc1ncnc(-c2ccc(C(=O)N3CCC[C@H]3CO)c(F)c2)c1C#Cc1ccc(N)nc1` [Example E-17], the negative logarithm of the IC50 (pIC50) is 6.87. The same measure for `CCc1ncnc(-c2ccc(C(=O)N3CCC4(CCN(C)C4)C3)c(Cl)c2)c1C#Cc1ccc(N)nc1` (centres unmarked) [Example E-40]: 6.29. The result for `CCc1ncnc(-c2ccc(C(=O)N3CCN4CCCC[C@H]4C3)c(Cl)c2)c1C#Cc1ccc(N)nc1` [Example E-143] reads 6.90; that for `CCc1ncnc(-c2ccc(C(=O)N3CCC(N4CCCC4)CC3)c(F)c2)c1C#Cc1ccc(N)nc1` [Example D-112], 6.49; that for `CCc1ncnc(-c2cc(F)c(C(=O)N3CCNCC3)c(F)c2)c1C#Cc1ccc(N)nc1` [Example E-14], 6.45. Turning to `CCc1ncnc(-c2ccc(C(=O)N3CCC(C4CCN(C)CC4)CC3)c(Cl)c2)c1C#Cc1ccc(N)nc1` [Example E-21], the pIC50 was 6.43. The result for `CCc1ncnc(-c2ccc(C(=O)N3CCN4CCC[C@@H]4C3)c(F)c2)c1C#Cc1ccc(N)nc1` [Example E-140] reads 6.70; that for `CCc1ncnc(-c2ccc(C(=O)N3CCC(N4CCCCCC4)CC3)c(C)c2)c1C#Cc1ccc(N)nc1` [Example E-102], 6.54.

For `CCc1ncnc(-c2ccc(C(=O)NC3CCCN(C)C3)c(F)c2)c1C#Cc1ccc(N)nc1` [Example D-197], the pIC50 is 6.55.

For `CCc1ncnc(-c2ccc(C(=O)NC)c(Cl)c2)c1C#Cc1ccc(N)nc1` [Example C-12], the pIC50 was 7.15. Consider `CCc1ncnc(-c2cc(F)c(C(=O)N3CCN(C(C)C)CC3)c(Cl)c2)c1C#Cc1ccc(N)nc1` [Example E-234], for which the pIC50 is 6.58. As to `CCc1ncnc(-c2ccc(C(=O)N3CCN(S(=O)(=O)CC)CC3)c(F)c2)c1C#Cc1ccc(N)nc1` [Example D-89], the pIC50 is 7.28. The result for `CCc1ncnc(-c2cc(Cl)c(C(=O)N3CCC(C(C)O)CC3)c(Cl)c2)c1C#Cc1ccc(N)nc1` (centres unmarked) [Example E-200] reads 7.23; that for `Cc1ncnc(-c2ccccc2)c1C#Cc1ccc(N)nc1` [Example C-7], 7.41; that for `CCc1ncnc(-c2ccc(C(=O)NC3CC(N4CCCCC4)C3)c(F)c2)c1C#Cc1ccc(N)nc1` [Example D-207], 6.36. The same measure for `CCc1ncnc(-c2ccc(C(=O)N3CCC(N4CCOCC4)CC3)c(F)c2)c1C#Cc1ccc(NC)nc1` [Example E-178]: 6.47; for `CCc1ncnc(-c2ccc(C(=O)N3CC4(CNC4)C3)c(F)c2)c1C#Cc1ccc(N)nc1` [Example E-269]: 6.60; for `CCc1ncnc(-c2ccc(C(=O)N3CCCOCC3)c(Cl)c2)c1C#Cc1ccc(N)nc1` [Example D-157]: 7.19. With `CCc1ncnc(-c2ccc(C(=O)N3CCC(N4CCCC4)C3)c(F)c2)c1C#Cc1ccc(N)nc1` [Example D-235], the negative-log IC50 (pIC50) is 6.65.

As for `CCc1ncnc(-c2ccc(C(=O)N3CCC(N4CCOCC4)CC3)c(Cl)c2)c1C#Cc1ccc(N)nc1` [Example E-71], the pIC50 was 7.00. Regarding `CCc1ncnc(-c2cc(F)c(C(=O)N3CCn4c(C)cnc4C3)c(F)c2)c1C#Cc1ccc(N)nc1` [Example E-149], the negative logarithm of the IC50 (pIC50) is 7.07.

Regarding `CCc1ncnc(-c2ccc(C(=O)N3CCN(Cc4ncon4)CC3)c(F)c2)c1C#Cc1ccc(N)nc1` [Example E-346], the pIC50 was 6.78. With `Cc1ncnc(-c2cc(Cl)cc(C(=O)N(C)C)c2)c1C#Cc1ccc(N)nc1` [Example C-38], the pIC50 is 7.17. The result for `CCc1ncnc(-c2ccc(C(=O)N3CCN4CCC[C@H]4C3)c(Cl)c2)c1C#Cc1ccc(N)nc1` [Example E-141] reads 6.59. Take `CCc1ncnc(-c2ccc(C(=O)N3CCC(O)CC3)c(F)c2)c1C#Cc1ccc(N)nc1` [Example D-71]: the pIC50 was 7.07. The same measure for `CCc1ncnc(-c2ccc(C(=O)N(C)C3CCS(=O)(=O)C3)c(OC)c2)c1C#Cc1ccc(N)nc1` (centres unmarked) [Example E-61]: 6.99.
